In the assay the test system is rats with scopolamine-induced cognitive impairment. The assay can be described thus: Novel object recognition test using rats with scopolamine-induced cognitive impairment. It counts as in vivo, rat (Long Evans). The settings on record: for percentage of exploration of the novel object in T2: scopolamine 0.7 mg/kg s.c., mean±standard error. From the text: [Test Example 1] Novel Object Recognition Test Using Rats with Scopolamine-Induced Cognitive Impairment
Acetylcholine nervous system disorder has been reported in Alzheimer's disease (Whitehouse et al., Science, 1982, vol. 215, p. 1237), and scopolamine-administered animals are utilizable as an animal model for Alzheimer's disease. Scopolamine is a muscarine receptor inhibitor which blocks acetylcholine nervous system transmission.
6-week-old male Long Evans rats (Institute for Animal Reproduction) were subjected to the test. A habituation process to the experimental procedure was carried out once per day for 2 days prior to the test. In the habituation process, a vehicle was administered to the rats, and then the rats were placed in an empty test apparatus (40 cm×30 cm×45 cm height) and allowed to explore for 3 minutes, and after then placed in a waiting chamber (13 cm×30 cm×45 cm height) for about 1 minute, they were returned to the empty test apparatus again and left for 5 minutes.
An acquisition trial (T1) was carried out on the day of the test. Compound (I) was orally administered 2 hours before T1. Memantine hydrochloride was orally administered 1 hour before T1. Scopolamine (Wako Pure Chemical Industries, Ltd.) was subcutaneously administered 30 minutes before T1 at a dose of 0.7 mg/kg. In T1, the rats were habituated to the empty test apparatus for 3 minutes and then placed in the waiting chamber. After setting two identical objects in the test apparatus, the rats were returned into the test apparatus again and allowed to freely explore the two identical objects for 5 minutes. The rats were then returned into their rearing cages. After 2 hours, a retention trial (T2) was carried out. The rats were placed in the empty test apparatus for 3 minutes for habituation, and were then transferred into the waiting chamber. After setting an object used in T1 (“familiar” object) and an object not used in T1 (“novel” object) in the test apparatus, the rats were again returned into the test apparatus and allowed to freely explore these objects for 3 minutes. The objects were wiped with a wet wipe impregnated with ethanol after each experiment so as to leave no trace of odor. The behaviors of the rats during T1 and T2 were recorded by a digital video camera, and the total exploration time for each object was manually measured using a stopwatch. Exploratory behavior was defined as the behavior in which the rat brings its nose within 2 cm of the object and directs its nose toward the object.
In the novel object recognition test, the percentage of exploration of the novel object in T2 is considered to be an index for amnesia, reflecting discrimination between the familiar object and the novel object. The percentage of exploration of the novel object was calculated by the following formula. The percentage of exploration of the novel object (%)=N/(N+F)×100 F: time spent in exploring the familiar object N: time spent in exploring the novel object
Rats whose total time spent in exploring the objects during T1 or T2 was 10 seconds or less or rats whose percentage of the time spent in exploring either of the objects during T1 was not less than 70% or not more than 30% of the total exploration time were excluded from the data analysis.
The results were expressed as mean±standard error. The difference between the normal control group untreated with scopolamine and the disease control group treated with scopolamine was analyzed by an unpaired t-test (significant difference: *). The difference between the disease control group and the single drug-treated group was analyzed by Dunnett-type multiple comparison test (significant difference: #). The difference between the combined treatment group and the single drug-treated group was analyzed by an unpaired t-test (significant difference: ※). A value of p<0.05 was judged to be a statistically significant difference. Statistical analysis was conducted using GraphPad Prism version 5.04 or 6.02.

Take `COc1ncc(C)c(-c2ccc3c(c2)[nH]c(=O)c2cnn([C@H]4CCOC4)c23)c1C` [Compound (I), (S)-7-(2-methoxy-3,5-dimethylpyridin-4-yl)-1-(tetrahydrofuran-3-yl)-1H-pyrazolo[4,3-c]quinoline-4(5H)-one]: the “percentage of exploration of the novel object in T2” value (“percentage of exploration … in T2” below) by setting is: (Compound (I) 0.3 mg/kg orally 2 hours before T1) 58.7 ± 3.2%; (Compound (I) 1 mg/kg orally 2 hours before T1) 59.9 ± 3.4%; (Compound (I) 3.3 mg/kg orally 2 hours before T1, # significant vs disease control) 68.5 ± 2.0# %; (Compound (I) 10 mg/kg orally 2 hours before T1, # significant vs disease control) 68.5 ± 1.6# %. In addition, the “ameliorative effect on the percentage of exploration of the novel object (significance vs disease control)” value was “did not exhibit a significant effect” (compound (I) 1 mg/kg (Table 1)) and “significant ameliorative effect” (compound (I) 3.3 mg/kg (Table 2)).
As for `CC12CC3CC(C)(C1)CC(N)(C3)C2` [Memantine, memantine], the “percentage of exploration … in T2” value (Memantine 1 mg/kg orally 1 hour before T1) is recorded as 58.1 ± 2.4%; the “percentage of exploration … in T2” value (Memantine 3 mg/kg orally 1 hour before T1, # significant vs disease control) is on record as 68.9 ± 4.0# %; the “percentage of exploration … in T2” value (Memantine 10 mg/kg orally 1 hour before T1) is listed as 59.9 ± 3.8%. In addition, the “ameliorative effect on the percentage of exploration of the novel object (significance vs disease control)” value (memantine hydrochloride 1 mg/kg alone (Table 4)) is “no significant ameliorative effect” and the “ameliorative effect on the percentage of exploration of the novel object (significance vs disease control)” value (memantine hydrochloride 3 mg/kg (Table 3)) is on record as “significant ameliorative effect”.
